This data set in a line: Solubility in water (statement). It is filed as physicochemical.

Consider two compounds from patent US9090571B2, “Meglumine salt of 6-fluoro-3-hydroxy-2-pyrazine carboxamide” (TOYAMA CHEMICAL CO., LTD., priority 2010, dated 2015).

Structures are written as SMILES.

In the case of `NC(=O)c1nc(F)c[nH]c1=O` [Compound A, 6-fluoro-3-hydroxy-2-pyrazinecarboxamide], the solubility in water entry was “low solubility in water”.
In the case of `CNC[C@H](O)[C@@H](O)[C@H](O)[C@H](O)CO.NC(=O)c1nc(F)cnc1O` [Salt A, meglumine salt of 6-fluoro-3-hydroxy-2-pyrazinecarboxamide] it was “high”.
